Measurements published in patent publication US7786141B2 (Vertex Pharmaceuticals Incorporated, priority 2004, dated 2010).
pEC50: −log10 of the molar value. Where two headings read alike, the source gives them in different places.

How the values were obtained:
M4 muscarinic receptor = molecular target: T1, M4 muscarinic receptor (Homo sapiens, UniProt P08173); experiment: Functional mobilization of intracellular calcium (FLIPR) in M4-CHO cells; assay type: cell-based; conditions: for Emax: read-out: M4 Efficacy
T1 construct: expressed in transfected cells; host or cells: CHO (M4-CHO)
T1 sequence (P08173 1-479): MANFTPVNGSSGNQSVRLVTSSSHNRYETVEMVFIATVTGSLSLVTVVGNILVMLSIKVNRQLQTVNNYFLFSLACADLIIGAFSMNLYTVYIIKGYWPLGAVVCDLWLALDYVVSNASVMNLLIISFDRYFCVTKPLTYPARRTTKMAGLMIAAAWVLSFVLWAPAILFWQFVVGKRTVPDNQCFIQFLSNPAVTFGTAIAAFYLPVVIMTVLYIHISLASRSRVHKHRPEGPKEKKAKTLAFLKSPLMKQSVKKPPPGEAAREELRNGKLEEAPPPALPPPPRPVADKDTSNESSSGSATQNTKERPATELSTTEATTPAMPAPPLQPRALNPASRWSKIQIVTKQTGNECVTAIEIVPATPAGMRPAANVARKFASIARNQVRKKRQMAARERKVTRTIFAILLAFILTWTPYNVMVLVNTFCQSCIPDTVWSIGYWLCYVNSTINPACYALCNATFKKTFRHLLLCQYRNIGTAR
Summary of the method: (§1)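 CHO cells stably expressing human M1 or M4 receptor were loaded with Fluo-3 AM (or Calcium 3 dye) in Hepes-buffered saline, pH 7.4, with 1 mM probenecid, 0.5% final DMSO. Agonist mode: compound added directly; antagonist mode: 15 min preincubation before carbachol at EC80. FLIPR fluorescence recorded 60 sec.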

M1 muscarinic receptor = molecular target: T2, M1 muscarinic receptor (Homo sapiens, UniProt P11229); experiment: Functional mobilization of intracellular calcium (FLIPR) in M1-CHO cells; assay type: cell-based; conditions: for Emax: read-out: M1 Efficacy
T2 construct: expressed in transfected cells; host or cells: CHO (M1-CHO)
T2 sequence (P11229 1-460): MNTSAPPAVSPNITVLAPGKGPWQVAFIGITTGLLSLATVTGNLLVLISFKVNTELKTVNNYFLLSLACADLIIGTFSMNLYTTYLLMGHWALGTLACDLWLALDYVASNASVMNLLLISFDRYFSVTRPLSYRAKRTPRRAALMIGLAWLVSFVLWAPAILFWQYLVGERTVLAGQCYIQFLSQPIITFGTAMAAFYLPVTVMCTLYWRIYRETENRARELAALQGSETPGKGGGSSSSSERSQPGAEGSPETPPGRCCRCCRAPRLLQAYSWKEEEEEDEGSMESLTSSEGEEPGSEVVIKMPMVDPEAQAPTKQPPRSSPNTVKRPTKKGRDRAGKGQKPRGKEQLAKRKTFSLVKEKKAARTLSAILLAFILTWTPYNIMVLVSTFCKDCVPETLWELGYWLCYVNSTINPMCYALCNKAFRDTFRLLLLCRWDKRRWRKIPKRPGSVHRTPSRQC
Summary of the method: as §1

[1] = M4 receptor, calcium mobilization
[2] = M1 receptor, calcium mobilization
[3] = M4-CHO cells, calcium mobilization (FLIPR)
[4] = M1-CHO cells, calcium mobilization (FLIPR)

| Structure (SMILES) | M4 Activity (M4 muscarinic receptor; [1]) | Emax (M4 muscarinic receptor; [1]) | M1 Activity (M1 muscarinic receptor; [2]) | Emax (M1 muscarinic receptor; [2]) | pEC50 (M4 muscarinic receptor; [3]) | Emax (M4 muscarinic receptor; [3]) | pEC50 (M1 muscarinic receptor; [4]) | Emax (M1 muscarinic receptor; [4]) |
| --- | --- | --- | --- | --- | --- | --- | --- | --- |
| Clc1ccc2c(c1)C1(CCN(C3CCC4CCC3C4)CC1)CN2 (centres unmarked) [compound 348] | xx (activity was measured to be between 0.1 μM and 1.0 μM) | > 85% | xxx (activity was measured to be less than 0.1 μM) | > 85% |  |  |  |  |
| Cc1ccc2c(c1)C1(CCN(C3CC4CCC3C4)CC1)CN2 (centres unmarked) [compound 350] | xxx (activity was measured to be less than 0.1 μM) | > 85% | xxx (activity was measured to be less than 0.1 μM) | > 85% |  |  |  |  |
| CCOC(=O)N1C2CCC1CC(N1CCC3(CC1)CNc1ccc(Cl)cc13)C2 (centres unmarked) [compound 351] | xx (activity was measured to be between 0.1 μM and 1.0 μM) | > 85% | xxx (activity was measured to be less than 0.1 μM) | 65 to 85% |  |  |  |  |
| CCOC(=O)N1CCC(N2CCC3(CC2)CNc2ccccc23)CC1 [compound 352] | x (activity was measured to be greater than 1.0 μM) | > 85% | xxx (activity was measured to be less than 0.1 μM) | > 85% |  |  |  |  |
| CC#CCOC(=O)N1CCC(N2CCC3(CC2)CN(C(=O)N(C)C)c2ccc(F)cc23)CC1 [compound 353] | x (activity was measured to be greater than 1.0 μM) | 65 to 85% | xxx (activity was measured to be less than 0.1 μM) | > 85% |  |  |  |  |
| Cc1ccc2c(c1)C1(CCN(C3CC4CCC3C4)CC1)CN2S(=O)(=O)c1ccccc1 (centres unmarked) [compound 354] | x (activity was measured to be greater than 1.0 μM) | 65 to 85% | x (activity was measured to be greater than 1.0 μM) | 65 to 85% |  |  |  |  |
| O=C(O[C@H]1CCOC1)N1C2CCC1CC(N1CCC3(CCc4ccccc43)CC1)C2 (some centres unmarked) [compound 355] | xx (activity was measured to be between 0.1 μM and 1.0 μM) | 65 to 85% | xx (activity was measured to be between 0.1 μM and 1.0 μM) | 65 to 85% |  |  |  |  |
| CN([C@H]1CC2(CCN(C[C@H]3C[C@H]4CC[C@H]3C4)CC2)c2ccccc21)S(C)(=O)=O [compound 357] | x (activity was measured to be greater than 1.0 μM) | < 65% | xx (activity was measured to be between 0.1 μM and 1.0 μM) | < 65% |  |  |  |  |
| CC(=O)N[C@H]1CC2(CCN(C3CCC[C@@H](C)C3)CC2)c2ccccc21 (some centres unmarked) [compound 358] | xx (activity was measured to be between 0.1 μM and 1.0 μM) | 65 to 85% | xxx (activity was measured to be less than 0.1 μM) | 65 to 85% |  |  |  |  |
| CCOC(=O)N1C2CCC1CC(N1CCC3(CC1)C[C@H](NC(C)=O)c1ccccc13)C2 (some centres unmarked) [compound 359] | xx (activity was measured to be between 0.1 μM and 1.0 μM) | < 65% | xx (activity was measured to be between 0.1 μM and 1.0 μM) | < 65% |  |  |  |  |
| CCCOC(=O)N1C2CCC1CC(N1CCC3(CC1)CN(C(=O)N(C)C)c1ccc(F)cc13)C2 (centres unmarked) [compound 360] | x (activity was measured to be greater than 1.0 μM) | < 65% | xx (activity was measured to be between 0.1 μM and 1.0 μM) | 65 to 85% |  |  |  |  |
| CC(C)OC(=O)N1C2CCC1CC(N1CCC3(CC1)CN(C(=O)O[C@@H]1CCOC1)c1ccc(F)cc13)C2 (some centres unmarked) [compound 361] | x (activity was measured to be greater than 1.0 μM) | < 65% | xx (activity was measured to be between 0.1 μM and 1.0 μM) | < 65% |  |  |  |  |
| CCOC(=O)N1C2CCC1CC(N1CCC3(CC1)CN(C(=O)N(C)C)c1ccc(F)cc13)C2 (centres unmarked) [compound 362] | x (activity was measured to be greater than 1.0 μM) | < 65% | xx (activity was measured to be between 0.1 μM and 1.0 μM) | 65 to 85% |  |  |  |  |
| O=C(OCC1CCCO1)N1C2CCC1CC(N1CCC3(CC1)COc1ccc(F)cc13)C2 (centres unmarked) [compound 363] | x (activity was measured to be greater than 1.0 μM) | < 65% | xx (activity was measured to be between 0.1 μM and 1.0 μM) | < 65% |  |  |  |  |
| C#CCOC(=O)N1CCC(CN2CCC3(CC2)C[C@H](NC(C)=O)c2ccccc23)CC1 [compound 364] | x (activity was measured to be greater than 1.0 μM) | < 65% | xxx (activity was measured to be less than 0.1 μM) | > 85% |  |  |  |  |
| CCOC(=O)N1C2CCC1CC(N1CCC3(CCc4ccccc43)CC1)C2 (centres unmarked) [compound 365] | x (activity was measured to be greater than 1.0 μM) | < 65% | xxx (activity was measured to be less than 0.1 μM) | 65 to 85% |  |  |  |  |
| CC(=O)N1CC2(CCN(CC3CC4CCC3CC4)CC2)c2cc(F)ccc21 (centres unmarked) [compound 366] | x (activity was measured to be greater than 1.0 μM) | < 65% | xx (activity was measured to be between 0.1 μM and 1.0 μM) | < 65% |  |  |  |  |
| CCC1CCC(N2CCC3(CC2)C[C@H](NC(C)=O)c2ccccc23)CC1 (some centres unmarked) [compound 367] | x (activity was measured to be greater than 1.0 μM) | < 65% | x (activity was measured to be greater than 1.0 μM) | < 65% |  |  |  |  |
| CCOC(=O)N1C2CCC1CC(CN1CCC3(CC1)CNc1ccc(F)cc13)C2 (centres unmarked) [compound 368] | xx (activity was measured to be between 0.1 μM and 1.0 μM) | < 65% | xxx (activity was measured to be less than 0.1 μM) | < 65% |  |  |  |  |
| Clc1ccc2c(c1)C1(CCO2)CCN([C@@H]2C[C@@H]3CC[C@H]2C3)CC1 [compound 369] | xx (activity was measured to be between 0.1 μM and 1.0 μM) | > 85% | xxx (activity was measured to be less than 0.1 μM) | > 85% |  |  |  |  |
| CCOC(=O)N1CCC(N2CCC3(CC2)CN(C(=O)OCCF)c2ccc(F)cc23)CC1 [compound 370] | xx (activity was measured to be between 0.1 μM and 1.0 μM) | > 85% | xxx (activity was measured to be less than 0.1 μM) | 65 to 85% |  |  |  |  |
| CCOC(=O)N1C2CCC1CC(N1CCC3(CC1)CN(C(C)=O)c1ccc(F)cc13)C2 (centres unmarked) [compound 371] | x (activity was measured to be greater than 1.0 μM) | > 85% | xxx (activity was measured to be less than 0.1 μM) | 65 to 85% |  |  |  |  |
| Cc1ccc2c(c1)C1(CCN(CC3CC4CCC3O4)CC1)CN2 (centres unmarked) [compound 372] | xx (activity was measured to be between 0.1 μM and 1.0 μM) | > 85% | xxx (activity was measured to be less than 0.1 μM) | 65 to 85% |  |  |  |  |
| CCOC(=O)N1CCC(N2CCC3(CC2)CN(C(C)=O)c2ccc(-c4cccc(C#N)c4)cc23)CC1 [compound 373] | xx (activity was measured to be between 0.1 μM and 1.0 μM) | > 85% | xxx (activity was measured to be less than 0.1 μM) | 65 to 85% |  |  |  |  |
| COC(=O)N1CCC(N2CCC3(CC2)CN(C(C)=O)c2ccc(F)cc23)CC1 [compound 374] | x (activity was measured to be greater than 1.0 μM) | 65 to 85% | xx (activity was measured to be between 0.1 μM and 1.0 μM) | 65 to 85% |  |  |  |  |
| c1ccc2c(c1)NCC21CCN(C2CCCCC2)CC1 [compound 375] |  |  |  |  | > 7.00 | 65 to 85% | > 7.00 | > 85% |
| Fc1ccc2c(c1)C1(CCN(C[C@H]3C[C@H]4C=C[C@H]3C4)CC1)CO2 [compound 376] |  |  |  |  | < 6.00 | 65 to 85% | > 7.00 | 65 to 85% |
| Fc1ccc2c(c1)C1(CCN(C3CC4CCC(C4)C3)CC1)CN2 (centres unmarked) [compound 377] |  |  |  |  | 6.00 to 7.00 | 65 to 85% | > 7.00 | 65 to 85% |
| COCCOC(=O)N1C2CCC1CC(N1CCC3(CC1)COc1ccc(F)cc13)C2 (centres unmarked) [compound 378] |  |  |  |  | < 6.00 | 65 to 85% | 6.00 to 7.00 | 65 to 85% |
